Experimental data: US9833497B2, “Human originated EGF domain proteins and use of the same” (CHENGDU SOURCEBIO LIMITED-LIABILITY COMPANY, priority 2013, dated 2017)

Experiments:
Format in all cases: cell-based
[1] = system: E. coli DH5α; assay: Antibacterial activity: MIC and growth curve against E. coli DH5α in 96-well plate; conditions: minimal inhibitory concentration against E. coli DH5α; 96-well plate, 5×10^5 CFU/mL, 37° C., judged after 8 h
Summary of the method: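 MIC taken as lowest protein level with no bacterial growth, tracked by A600 every 30 min during 37 °C, 175 rpm culture. Two-fold protein series 50-12.5 μg/mL final, triplicate wells, against 5×10^5 CFU/mL of LB-washed mid-log cells.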

[2] = system: E. coli BL21; assay: MIC against Gram-negative bacteria: E. coli BL21; conditions: for MIC E. coli BL21: two-fold serial dilution
Summary of the method: (§1)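 MIC, the lowest recombinant protein concentration giving no bacterial growth, found by two-fold serial dilution of human EGF-domain proteins in triplicate. Inoculum 5×10^5 CFU/mL in LB from cultures at McFarland 0.5; plates incubated at 37° C, 175 rpm shaking.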

[3] = system: Pseudomonas aeruginosa; assay: MIC against Gram-negative bacteria: Pseudomonas aeruginosa; conditions: for MIC (μg/mL) P. aeruginosa: Pseudomonas aeruginosa; for MIC P. aeruginosa: two-fold serial dilution
Summary of the method: as §1

[4] = system: Klebsiella pneumonia; assay: MIC against Gram-negative bacteria: Klebsiella pneumonia; conditions: for MIC (μg/mL) K. pneumonia: Klebsiella pneumonia; for MIC K. pneumonia: two-fold serial dilution
Summary of the method: as §1

[5] = system: Enterobacter cloacae; assay: MIC against Gram-negative bacteria: Enterobacter cloacae; conditions: for MIC (μg/mL) E. cloacae: Enterobacter cloacae; for MIC E. cloacae: two-fold serial dilution
Summary of the method: as §1

[6] = system: Aeromonas hydrophila; assay: MIC against Gram-negative bacteria: Aeromonas hydrophila; conditions: for MIC (μg/mL) A. hydrophila: Aeromonas hydrophila; for MIC A. hydrophila: two-fold serial dilution
Summary of the method: as §1

[7] = system: Citrobacter diversus; assay: MIC against Gram-negative bacteria: Citrobacter diversus; conditions: for MIC (μg/mL) C. diversus: Citrobacter diversus; for MIC C. diversus: two-fold serial dilution
Summary of the method: as §1

[8] = system: Moraxella catarrhalis; assay: MIC against Gram-negative bacteria: Moraxella catarrhalis; conditions: for MIC (μg/mL) M. catarrhalis: Moraxella catarrhalis; for MIC M. catarrhalis: two-fold serial dilution
Summary of the method: as §1

[9] = system: Proteus mirabilis; assay: MIC against Gram-negative bacteria: Proteus mirabilis; conditions: for MIC (μg/mL) P. mirabilis: Proteus mirabilis; for MIC P. mirabilis: two-fold serial dilution
Summary of the method: as §1

[10] = system: Proteus vulgaris; assay: MIC against Gram-negative bacteria: Proteus vulgaris; conditions: for MIC (μg/mL) P. vulgaris: Proteus vulgaris; for MIC P. vulgaris: two-fold serial dilution
Summary of the method: as §1

[11] = system: Serratia marcescens; assay: MIC against Gram-negative bacteria: Serratia marcescens; conditions: for MIC (μg/mL) S. marcescens: Serratia marcescens; for MIC S. marcescens: two-fold serial dilution
Summary of the method: as §1

[12] = 96-well plate, 5×10^5 CFU/mL, 37° C., 10 h
[13] = E. coli BL21, 96-well plate, 5×10^5 CFU/mL, 37° C., 10 h
[14] = 10 h cultivation at 37° C., 5×10^5 CFU/mL

Substance: PRT501 (CGCNPVGSASDEPCTGPCVCKENVEGKACDRCKPGFYNLKEKNPRGCSE; listed as Homo sapiens)
- MIC [1]: 12.5 µg/mL
- MIC against E. coli BL21 [2, 12]: 25 µg/mL
- MIC against P. aeruginosa [3, 12]: 50 µg/mL
- MIC against K. pneumonia [4, 12]: 25 µg/mL
- MIC against E. cloacae [5, 12]: 12.5 µg/mL
- MIC against A. hydrophila [6, 12]: 25 µg/mL
- MIC against C. diversus [7, 12]: 12.5 µg/mL
- MIC against M. catarrhalis [8, 12]: 25 µg/mL
- MIC against P. mirabilis [9, 12]: 12.5 µg/mL
- MIC against P. vulgaris [10, 12]: 25 µg/mL
- MIC against S. marcescens [11, 12]: 12.5 µg/mL

Substance: PRT1039 (SSGICDEASCIHGGTCTAIKADSYICLCPLGFKGRHCE; listed as Homo sapiens)
- MIC [1]: 50 µg/mL
- MIC ([2]; E. coli BL21, 10 h cultivation at 37° C.): 50 µg/mL
- MIC ([3]; P. aeruginosa, 10 h cultivation at 37° C.): 50 µg/mL
- MIC ([4]; K. pneumonia, 10 h cultivation at 37° C.): 12.5 µg/mL
- MIC ([5]; E. cloacae, 10 h cultivation at 37° C.): 25 µg/mL
- MIC ([6]; A. hydrophila, 10 h cultivation at 37° C.): 50 µg/mL
- MIC ([7]; C. diversus, 10 h cultivation at 37° C.): 50 µg/mL
- MIC ([8]; M. catarrhalis, 10 h cultivation at 37° C.): 12.5 µg/mL
- MIC ([9]; P. mirabilis, 10 h cultivation at 37° C.): 50 µg/mL
- MIC ([10]; P. vulgaris, 10 h cultivation at 37° C.): 12.5 µg/mL
- MIC ([11]; S. marcescens, 10 h cultivation at 37° C.): 50 µg/mL

Substance: PRT61 (KDECSKDNGGCQQDCVNTFGSYECQCRSGFVLHDNKHDCK; listed as Homo sapiens)
- MIC [1]: 12.5 µg/mL
- MIC (μg/mL) E. coli BL21 [2, 13]: 50 µg/mL
- MIC (μg/mL) P. aeruginosa [3, 12]: 12.5 µg/mL
- MIC (μg/mL) K. pneumonia [4, 12]: 12.5 µg/mL
- MIC (μg/mL) E. cloacae [5, 12]: 12.5 µg/mL
- MIC (μg/mL) A. hydrophila [6, 12]: 12.5 µg/mL
- MIC (μg/mL) C. diversus [7, 12]: 25 µg/mL
- MIC (μg/mL) M. catarrhalis [8, 12]: 25 µg/mL
- MIC (μg/mL) P. mirabilis [9, 12]: 25 µg/mL
- MIC (μg/mL) P. vulgaris [10, 12]: 12.5 µg/mL
- MIC (μg/mL) S. marcescens [11, 12]: 25 µg/mL

Substance: PRT1148 (NINECSSSPCLHGADCEDHINGYVCKCQPGWSGHHCE; listed as Homo sapiens)
- MIC [1]: 12.5 µg/mL
- MIC E. coli BL21 [2, 14]: 25 µg/mL
- MIC P. aeruginosa [3, 14]: 12.5 µg/mL
- MIC K. pneumonia [4, 14]: 25 µg/mL
- MIC E. cloacae [5, 14]: 12.5 µg/mL
- MIC A. hydrophila [6, 14]: 12.5 µg/mL
- MIC C. diversus [7, 14]: 12.5 µg/mL
- MIC M. catarrhalis [8, 14]: 12.5 µg/mL
- MIC P. mirabilis [9, 14]: 12.5 µg/mL
- MIC P. vulgaris [10, 14]: 25 µg/mL
- MIC S. marcescens [11, 14]: 12.5 µg/mL

Substance: PRT1190 (DLNYCGSHHPCTNGGTCINAEPDQYRCTCPDGYSGRNCE; listed as Homo sapiens)
- MIC [1]: 50 µg/mL
- MIC E. coli BL21 [2, 14]: 12.5 µg/mL
- MIC P. aeruginosa [3, 14]: 25 µg/mL
- MIC K. pneumonia [4, 14]: 12.5 µg/mL
- MIC E. cloacae [5, 14]: 50 µg/mL
- MIC A. hydrophila [6, 14]: 12.5 µg/mL
- MIC C. diversus [7, 14]: 25 µg/mL
- MIC M. catarrhalis [8, 14]: 50 µg/mL
- MIC P. mirabilis [9, 14]: 25 µg/mL
- MIC P. vulgaris [10, 14]: 12.5 µg/mL
- MIC S. marcescens [11, 14]: 50 µg/mL

Substance: PRT75 (DDNICLREPCENYMRCVSVLRFDSSAPFIASSSVLFRPIHPVGGLRCRCPPGFTGDYCE; listed as Homo sapiens)
- MIC [1]: 50 µg/mL
- MIC (μg/mL) E. coli BL21 [2, 13]: 25 µg/mL
- MIC (μg/mL) P. aeruginosa [3, 12]: 12.5 µg/mL
- MIC (μg/mL) K. pneumonia [4, 12]: 25 µg/mL
- MIC (μg/mL) E. cloacae [5, 12]: 50 µg/mL
- MIC (μg/mL) A. hydrophila [6, 12]: 12.5 µg/mL
- MIC (μg/mL) C. diversus [7, 12]: 12.5 µg/mL
- MIC (μg/mL) M. catarrhalis [8, 12]: 12.5 µg/mL
- MIC (μg/mL) P. mirabilis [9, 12]: 12.5 µg/mL
- MIC (μg/mL) P. vulgaris [10, 12]: 12.5 µg/mL
- MIC (μg/mL) S. marcescens [11, 12]: 12.5 µg/mL

Substance: PRT29 (PCNCDVHKGFDPNCNKTNGQCHCKEFHYRPRGSDSCLP; listed as Homo sapiens)
- MIC [1]: 25 µg/mL
- MIC (μg/mL) E. coli BL21 [2, 13]: 25 µg/mL
- MIC (μg/mL) P. aeruginosa [3, 12]: 12.5 µg/mL
- MIC (μg/mL) K. pneumonia [4, 12]: 25 µg/mL
- MIC (μg/mL) E. cloacae [5, 12]: 50 µg/mL
- MIC (μg/mL) A. hydrophila [6, 12]: 25 µg/mL
- MIC (μg/mL) C. diversus [7, 12]: 25 µg/mL
- MIC (μg/mL) M. catarrhalis [8, 12]: 12.5 µg/mL
- MIC (μg/mL) P. mirabilis [9, 12]: 25 µg/mL
- MIC (μg/mL) P. vulgaris [10, 12]: 50 µg/mL
- MIC (μg/mL) S. marcescens [11, 12]: 12.5 µg/mL
